{
  "source": "patent US6090852A",
  "about": "“Substituted alpha-aminosulphonyl-acetohydroxamic acids as therapeutic agents” (Pfizer Inc, priority 1998, dated 2000)",
  "origin": "cited, not measured here",
  "test_system": "human ovarian carcinoma xenografts",
  "settings": "mice carrying human ovarian carcinoma xenografts; Cancer Res., 1993, 53, 2087",
  "data": [
    {"smiles": "CNC(=O)[C@H](Cc1ccccc1)NC(=O)[C@H](CC(C)C)[C@H](CSc1cccs1)C(=O)NO", "note": "[BB-94]", "values": [
      {"measurement": "survival", "result": "prolong the survival"},
      {"measurement": "tumour burden", "result": "decrease the tumour burden"}
    ]}
  ]
}
